# Measurements published in patent publication US5648344A, “Methods of treating inflammation using selection binding compounds” (Glycomed Incorporated, priority 1992, dated 1997).
# Tests used:
# ELAM-1 [1] = assay: Adhesion of ELAM-transfected COS cells to glycolipids adsorbed to PVC microtiter wells or resolved on TLC plates (controlled detachment force); assay type: cell-based, human; details: ELAM-transfected COS cells as probes
# Procedure: The invention also includes a method of assaying candidate ligands for their ability to adhere to ELAM-1. The method comprises attaching candidate ligands to a substrate surface and then contacting the substrate surface thereon with recombinant cells, that are genetically engineered to express high levels of ELAM-1, for a sufficient time to allow the cells to adhere to the substrate bearing the candidate ligand. […] Candidate ligands which adhere to ELAM-1 are determined via the labels on the cells. Such molecules are isolated, characterized, and their structure specifically identified. Accordingly, the invention also includes glycolipid ligands which can be isolated via such an assay procedure.
# COS cells, expressing membrane-bound ELAM-1, were metabolically radiolabeled with ^32 PO4 and used as probes in two assay systems to screen for recognition of glycolipids. In the first, glycolipids were adsorbed to the bottoms of PVC microtiter wells, while in the second they were resolved on TLC plates. […]
# ELAM-1 [2] = assay: Inhibition by carbohydrates of ELAM-transfected COS cell adhesion to glycolipids; assay type: cell-based, human; details: for inhibition of cell adhesion to glycolipids: at 100 μg/ml, glycolipids eluted from DEAE-Sepharose with 5 mM potassium acetate; for inhibition of adhesion of ELAM-1 transfected COS cells to sialylated glycolipids: glycolipids resolved on TLC plates or adsorbed on PVC microtiter wells, concentration not given
# Description: Radiolabeled COS cells expressing cell surface ELAM-1 were used as probes to screen human leukocyte-derived glycolipids. ELAM-1 transfected COS cells adhered to a subset of sialylated glycolipids which were resolved on TLC plates or adsorbed on PVC microtiter wells. Adhesion to these glycolipids required calcium, but was not inhibited by heparin, chondroitin sulfate, keratin sulfate, or yeast phosphomannan (PPME).
# COS cells, expressing membrane-bound ELAM-1, were metabolically radiolabeled with ^32 PO4 and used as probes in two assay systems to screen for recognition of glycolipids. In the first, glycolipids were adsorbed to the bottoms of PVC microtiter wells, while in the second they were resolved on TLC plates. In both assays these glycolipids were probed for their ability to support adhesion of ELAM-transfected COS cells, untransfected COS cells, or COS cells transfected with a plasmid containing an irrelevant cDNA, under conditions of controlled detachment force (see Swank-Hill, P., et al., Anal. Biochem. (1987) 183:27; and Blackburn, C. C., et al., J. Biol. Chem. (1986) 261:2873 each of which is incorporated herein by reference to disclose the details of such assaying methodology).
# The material not retained on the column and in fractions eluted by step-wise increases in salt concentration (from 5 mM to 250 mM potassium acetate in methanol) were screened for cell adhesion.
compound,measurement,setting,value
CC(=O)N[C@H]1[C@H]([C@H](O)[C@H](O)CO)O[C@@](O[C@H]2[C@@H](O)[C@@H](CO)O[C@@H](O[C@H]3[C@H](O[C@@H]4O[C@@H](C)[C@@H](O)[C@@H](O)[C@@H]4O)[C@@H](NC(C)=O)C(O)O[C@@H]3CO)[C@@H]2O)(C(=O)O)C[C@@H]1O (stereo partly drawn) [Neu NAc α2-3Gal-β1-4(Fuc α1-3)-GlcNAc],recognition by / binding to ELAM-1,ELAM-1 [1],effectively bind to ELAM-1
chondroitin sulfate,inhibition of cell adhesion to glycolipids,ELAM-1 [2],not inhibited
same,inhibition of adhesion of ELAM-1 transfected COS cells to sialylated glycolipids,ELAM-1 [2],not inhibited
heparin,inhibition of cell adhesion to glycolipids,ELAM-1 [2],not inhibited
same,inhibition of adhesion of ELAM-1 transfected COS cells to sialylated glycolipids,ELAM-1 [2],not inhibited
keratin sulfate,inhibition of cell adhesion to glycolipids,ELAM-1 [2],not inhibited
same,inhibition of adhesion of ELAM-1 transfected COS cells to sialylated glycolipids,ELAM-1 [2],not inhibited
yeast phosphomannan,inhibition of cell adhesion to glycolipids,ELAM-1 [2],not inhibited
same,inhibition of adhesion of ELAM-1 transfected COS cells to sialylated glycolipids,ELAM-1 [2],not inhibited
